In PubChem BioAssay AID179 (DTP/NCI, 2004) one finds EC50, IC50 and outcome data, which are given here for 73 compounds.

The test system of the experiment is CEM cells HIV-1 protection, formazan growth assay. Description: NCI AIDS Antiviral Assay. Particulars: for IC50: measured here: growth of uninfected CEM cells. In short, it runs like this:
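Steps: treat uninfected and HIV-1-infected human CEM cells at five drug levels; quantify growth by soluble formazan; retest any compound reaching 50% protection; classify actives from the retest.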

“And” between values parts separate entries of the source, which are not always exact repeats. Equal values may be shown once. The source made the active and inactive calls.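 Rule for the calls: active = compounds giving half or more protection of infected cells from virus-caused growth loss, again on retest; inactive = the rest.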 Where a SMILES comes first, the peptide text is derived from it. [ ]: non-standard residue; d: D form. Phe(4-NO2) = N[CH](Cc1ccc([N+](=O)[O-])cc1)C(=O)O Where only a bound is given, the exact number is not on record here.

As a reminder, the EC50 is the concentration at which the effect is half-maximal. Usually IC50 stands for the midpoint of a concentration-inhibition curve. For `CC(=O)N1N=C(c2ccc3ccccc3c2O)CC1c1ccc(N(C)C)cc1` (stereo not drawn), the EC50 is more than 50.1 µM and the half-maximal inhibitory concentration (IC50) was more than 50.1 µM.

For `O=C(C(=Cc1ccccc1)C(=O)c1ccccc1)c1ccccc1`, the EC50 was more than 43.7 µM and the IC50 is 14.5 µM.

On to `CCCCNc1nc2nc[nH]c2c(=O)[nH]1`, for which the EC50 was more than 200 µM and the IC50 is more than 200 µM.

Regarding `O=C(O)C(SC(=S)c1ccc(C(=S)SC(C(=O)O)c2ccccc2)cc1)c1ccccc1` (stereo not drawn), the outcome was inactive.

As to `COc1cc(/C=C2\CCc3ccccc3C2=O)cc(OC)c1OC`, the EC50 was more than 30.9 µM and the IC50 is 9.77 µM.

`O=NN1CCCS1(=O)=O`: the EC50 is more than 200 µM and the IC50 was more than 200 µM.

For the compound `CCO/C=N\c1c(C#N)c(-c2ccc(Cl)cc2)cn1-c1ccc(C)cc1`, the EC50 was more than 200 µM and the IC50 came out at 25.1 µM.

As to `COc1cc(/C=C2\S/C(=N/Nc3nc(-c4ccc(Br)cc4)cs3)NC2=O)cc(OC)c1OC`, the EC50 is more than 200 µM and the IC50 came to 17 µM.

Consider `Clc1ccc(NC2=NCCN=C(Nc3ccc(Cl)c(Cl)c3)SS2)cc1Cl`, for which the EC50 was more than 11.2 µM and the IC50 was more than 11.2 µM.

In the case of `Cc1ccc(N=NN(C)C(C)C(O)Cc2ccccc2)cc1` (stereo not drawn), the EC50 was more than 200 µM and the IC50 was 77.6 µM.

In the case of `Cc1ccsc1/C=N/Nc1ccccn1`, the EC50 was more than 200 µM and the IC50 came to 21.4 µM.

`NCCc1ccc(O)c(O)c1`: the EC50 was more than 200 µM and the IC50 was determined as 132 µM.

As to `Cc1cc2c(=O)c3ccc(Cl)cc3[nH]c2c(C(N)=O)c1C`, the outcome was inactive.

Turning to `CC(=O)Nc1nc(C)c(CCC#N)c(SC(=N)N)n1`, the EC50 is more than 200 µM and the IC50 is more than 200 µM.

In the case of `CC(C)C(=O)CC(c1ccc(Cl)cc1)N1N=C(C(C)C)CC1c1ccc(Cl)cc1` (stereo not drawn), the result was inactive.

On to `NC(N)=NS(=O)(=O)c1ccc(NCc2c3ccccc3nc3ccccc23)cc1`, for which the EC50 is more than 2 µM and the IC50 was 0.195 µM.

For `COC1OC2COC(c3ccccc3)OC2C2OC(=S)OC12` (stereo not drawn), the result was inactive.

With `O=C1CCCCC/C1=C\c1cccc(F)c1`, the EC50 was more than 200 µM and the half-inhibitory concentration (IC50) is more than 100 µM.

Take `COc1ccc(-c2cc(C(=O)Nc3cc(C(F)(F)F)cc(C(F)(F)F)c3)c3ccccc3n2)cc1`: the EC50 is more than 14.8 µM and the concentration for half-maximal inhibition (IC50) is more than 14.8 µM.

As to `CC1(C)N([O-])[N+](=O)C1(C)C`, the EC50 is more than 200 µM and the IC50 is more than 200 µM.

On to `C[C@]12CCC(=O)C=C1CC[C@@H]1C2CC[C@]2(C)c3nn(-c4ccccc4)nc3CC12` (stereo partly drawn), for which the outcome was inactive.

For `O=C(CCCn1cnc([N+](=O)[O-])n1)NCCn1ccnc1[N+](=O)[O-]`, the EC50 was more than 200 µM and the half-inhibitory concentration (IC50) is more than 200 µM.

On to `CCCN(CCC)CCc1cc(C(C)=O)n(S(=O)(=O)c2ccc(C)cc2)c1`, for which the EC50 was more than 589 µM and the IC50 turned out to be 263 µM.

As to `CCCNC(=O)N(CC(C)C)S(=O)(=O)c1ccc(Cl)cc1`, the outcome was inactive.

With `CN(C)Cc1cc(C(=O)/C=C/c2cccc(Cl)c2)cc(CN(C)C)c1O`, the result was inactive.

With `CCN(CC)CCC(=O)c1ccc(Oc2ccc(F)cc2)cc1`, the EC50 is more than 200 µM and the IC50 is 22.9 µM.

Turning to `N=C1CSC2=NC3=C(CCC/C3=C\c3ccccc3)C(c3ccccc3)N12` (stereo not drawn), the EC50 was more than 18.6 µM and the IC50 was more than 18.6 µM.

For `O=C(O)c1ccc(NC(NC(=O)C(C(F)(F)F)C(F)(F)F)(C(F)(F)F)C(F)(F)F)cc1`, the EC50 was more than 200 µM and the IC50 was more than 200 µM.

For the compound `C=C1C2=C(CCCC2)C(=O)OC12CCCCC2`, the EC50 was more than 100 µM and the IC50 was more than 100 µM.

With `O=C(O)c1cccc(Sc2ccccc2)c1`, the EC50 was more than 407 µM and the IC50 amounted to 251 µM.

Turning to `Cc1cc(O)ccc1C1(c2ccc(F)cc2)OC(=O)c2ccccc21` (stereo not drawn), the result was inactive.

Consider `NC1CCC(C(=O)C2CCC(O)CC2O)CC1` (stereo not drawn), for which the EC50 is more than 200 µM and the IC50 worked out at 18.2 µM.

For the compound `NCCNCCCNC(=O)c1cc(-c2ccccc2)nc2ccccc12`, the EC50 is more than 200 µM and the IC50 turned out to be 53.7 µM.

For `COc1ccc([N+](=O)[O-])c2c(NCCCN(C)C)c3ccccc3nc12`, the EC50 was more than 0.2 µM and the IC50 worked out at 0.138 µM.

Turning to `Nc1ncnc2c1[nH]c(=O)n2-c1ccccc1`, the EC50 was more than 200 µM and the IC50 is 178 µM.

As to `C=C/C=C/NC(=O)OCc1ccccc1`, the outcome was inactive.

Consider `Nc1cc(N2CCOCC2)nc(=O)n1-c1ccccc1`, for which the EC50 is more than 200 µM and the IC50 is more than 200 µM.

`C=CC(C)(C)n1cc(C2=C(O)C(=O)C(c3cn(C(C)(C)C=C)c4ccccc34)=C(OC(C)=O)C2=O)c2ccccc21`: the EC50 was more than 20 µM and the IC50 was determined as 1.07 µM.

On to `Cc1ccc(S(=O)(=O)N/N=C(\CCN2CCCC2)CC(c2ccccc2)c2c(O)c3ccccc3oc2=O)cc1` (stereo not drawn), for which the EC50 was more than 12 µM and the IC50 is more than 12 µM.

Turning to `COC(=O)c1oc(-c2ccccc2)c(-c2ccccc2)c1C(=O)OC`, the EC50 was more than 200 µM and the IC50 was 74.1 µM.

Regarding `COc1cc2c(c(OC)c1O)C(=O)CC(c1ccc(O)cc1)O2` (stereo not drawn), the EC50 is more than 200 µM and the IC50 worked out at 21.9 µM.

As for `O=C(OCCCl)c1ccccc1NC(=O)N1CCOCC1`, the result was inactive.

Consider `COC(=O)c1c(C(=O)OC)c2ccccn2c1-c1cc(C)cc2c1C(=O)C=CC2=O`, for which the EC50 was more than 200 µM and the IC50 was found to be 0.468 µM.

Regarding `CN(C)CCC=C1c2ccccc2C=Cc2ccccc21`, the EC50 is more than 200 µM; the concentration for half-maximal inhibition (IC50) is 33.9 µM and 28.8 µM and 37.2 µM.

As for `CN/N=C(/c1nc2ccc([N+](=O)[O-])cc2[nH]c1=O)C(O)c1ccc(C(O)/C(=N\NC)c2nc3ccc([N+](=O)[O-])cc3[nH]c2=O)cc1` (stereo not drawn), the EC50 was more than 107 µM and the IC50 turned out to be 77.6 µM.

On to `O=C([O-])c1ccccn1.O=C([O-])c1ccccn1.[Cu+2]`, for which the EC50 is more than 200 µM and the IC50 was 7.76 µM.

As to `COc1cc(/C=C/c2ccc3ccccc3n2)cc(OC)c1OC`, the EC50 is more than 22.4 µM and the IC50 was 1.48 µM.

Turning to `O=C(Cc1ccccc1)N/N=C(/c1nc2ccc([N+](=O)[O-])cc2[nH]c1=O)C(O)c1ccc(C(O)/C(=N/NC(=O)Cc2ccccc2)c2nc3ccc([N+](=O)[O-])cc3[nH]c2=O)cc1` (stereo not drawn), the EC50 is more than 155 µM and the IC50 was found to be 52.5 µM.

As for `O=C(O)c1ccsc1C(=O)c1ccccc1`, the EC50 is more than 200 µM and the IC50 was more than 200 µM.

Turning to `COC(CNC(=O)C(C)NC(=O)/C=C/c1ccccc1)OC` (stereo not drawn), the outcome was inactive.

`O=C(O)/C=C/c1ccc(/C=C/C(=O)O)cc1`: the EC50 is more than 200 µM and the IC50 is more than 200 µM.

Take `CC(=O)Oc1ccc2cc(Oc3ccc(Cl)c(Cl)c3)c(=O)oc2c1`: the EC50 is more than 200 µM and the IC50 was 85.1 µM.

Consider `O=C1C(c2ccccc2)=C2C(=C1c1ccccc1)c1cccc3cccc2c13`, for which the outcome was inactive.

On to `O=c1c(O)c(-c2ccc(O)c(O)c2)oc2cc(O)cc(O)c12.[Zr]`, for which the EC50 is more than 200 µM and the IC50 was more than 200 µM.

On to `CC(NC(=O)C(Cc1ccc([N+](=O)[O-])cc1)NC(=O)C(N)CCCCN)C(=O)NC(Cc1ccc([N+](=O)[O-])cc1)C(N)=O` (stereo not drawn) (H-K[Phe(4-NO2)]A[Phe(4-NO2)]-NH2; configuration not given here), for which the EC50 is more than 200 µM and the IC50 was more than 200 µM.

For the compound `CCOc1ccc(/C=C2/C(=O)N=C(NC(C)=O)N2C)cc1`, the EC50 is more than 200 µM and the IC50 was more than 200 µM.

For `CC(C)(C)c1cc2ccc(C(N)=O)cc2c(=O)[nH]1`, the EC50 was more than 537 µM and the IC50 was 302 µM.

As for `Cc1oc2c(c1C(=O)c1ccccc1)C(=O)c1ccccc1C2=O`, the EC50 is more than 58.9 µM and the IC50 came to 11.7 µM.

Consider `CCOC(=O)[C@H]1Nc2ccc(Cl)cc2[C@H]2CCC[C@@H]12`, for which the EC50 is more than 67.6 µM and the IC50 was more than 67.6 µM.

As for `Cn1c(N)c(N)c(=O)[nH]c1=O`, the EC50 is more than 200 µM and the IC50 turned out to be 162 µM.

For the compound `C=CCCCC1(C)CCNC1=S` (stereo not drawn), the EC50 is more than 513 µM and the IC50 is more than 513 µM.

As to `CCOC(=O)[C@@]12C[C@](/C=C/OC)(O[Si](C)(C)C)[C@@]13c1cc(OC)c(OC)cc1CCN3C(=O)C2O` (stereo partly drawn), the EC50 is more than 200 µM and the IC50 is more than 200 µM.

For the compound `O=C1C(S(=O)(=O)c2ccccc2)=C(CS(=O)(=O)c2ccccc2)[C@@H](OCc2ccccc2)[C@@H]1OCc1ccccc1`, the EC50 is more than 20 µM and the IC50 was determined as 9.55 µM.

Turning to `Brc1cc2[nH]c(-c3ccccc3)c(Br)c2c(Br)c1Br`, the EC50 was more than 200 µM and the IC50 was determined as 5.13 µM.

`Cc1cccc(NC(=S)Nc2ccc(Cl)cc2)n1`: the EC50 was more than 200 µM and the IC50 is more than 200 µM.

Consider `Cc1cccc(N(C(=O)Nc2ccc(Cl)c(Cl)c2)C2=NCC(C)S2)c1` (stereo not drawn), for which the EC50 was more than 200 µM and the IC50 was more than 200 µM.

Consider `COC(=O)c1sc2c(Cl)c(Cl)sc2c1Cl`, for which the EC50 is more than 50.1 µM and the IC50 was more than 50.1 µM.

For the compound `Nc1nc2ncn(CCO)c2c(=O)[nH]1`, the EC50 was more than 93.3 µM and the IC50 is more than 93.3 µM.

Turning to `CC(=O)OC1CC2C(C)(CCC3C2(C)CCC2(C)C4CC(C)(C)CCC4(C)CCC32C)C1C` (stereo not drawn), the EC50 was more than 200 µM and the IC50 amounted to 145 µM.

As for `O=c1c(-c2ccccc2)c[nH]c2cc([N+](=O)[O-])c(/C(Cl)=C/c3ccccc3)cc12`, the outcome was inactive.

As for `CCN(CC)CCCC(C)Nc1cc(-c2ccccc2)nc2cc(OC)ccc12` (stereo not drawn), the EC50 is more than 363 µM and the IC50 was 0.741 µM.

With `O=C1CCC/C1=C1/SS/C(=C2/CCCC2=O)S1`, the EC50 was more than 200 µM and the IC50 came out at 102 µM.

For the compound `CCOC(=O)C1C(=O)c2cccc(OC)c2C2COC(=O)N12` (stereo not drawn), the EC50 was more than 251 µM and the IC50 turned out to be 229 µM.
